The record followed here is patent US7371766B2, “Curcumin analogs with anti-tumor and anti-angiogenic properties” (Emory University, priority 1999, dated 2008).

Molecules are shown by their SMILES. Read-outs that look alike come from different tables or passages of the source.

In test [1] the test system is Human tumor and endothelial cell lines. In words: Emory Laboratory Cell Screen, mean over cell lines. In kind it is cell-based. The note with it: Mean over the Emory cell lines, 72 hours, read-out: Median Growth Inhibitory Concentration (GI50), Mean. The protocol:
(§1) Human tumor and endothelial cell lines were treated for 72 hours with compounds at a minimum of four concentrations between 0.1 μM-40 μM. Neutral Red assay was used to calculate cell viability.

Test [2] concerns Tissue Factor (TF) production by human prostate cancer cell line PC-3. The test can be described thus: TF ELISA, PC-3. It counts as cell-based. Conditions: 20 μM. The protocol: (§2) Cells were treated with 1% Triton X-100 in PBS and left overnight at 4° C. overnight to solubilize TF. […] IMUBIND Tissue Factor ELISA Kit (American Diagnostica Inc, Greenwich, Conn.) was used to determine TF concentration in each sample. The ELISA was carried out according to manufacturer's procedure.

Test [3] has as its system RPMI 7951. The test can be described thus: Emory Laboratory Cell Screen, Neutral Red, RPMI 7951. It counts as cell-based, human. Conditions: RPMI 7951, Melanoma, 72 hours, read-out: Median Growth Inhibitory Concentration (GI50). The method, then: as §1
Test [4] has as its system Vascular Endothelial Growth Factor (VEGF) production by human prostate cancer cell line DU-145. The test can be described thus: VEGF ELISA, DU-145. It counts as cell-based. Background: An ELISA detects its analyte on a solid surface through an enzyme-linked reagent.
The test system of test [5] is RPMI-7951 human melanoma. The test can be described thus: Neutral Red Assay, cell viability, RPMI-7951. Conditions: Homo sapiens.
Test [6] relates to Vascular Endothelial Growth Factor (VEGF) production by human melanoma cell line RPMI-7951. In words: VEGF ELISA, RPMI-7951. The note with it: for VEGF ELISA / VEGF: RPMI-7951; for VEGF ELISA: DMSO control 3713.
For test [7], the system named is Tissue Factor (TF) production by human prostate cancer cell line DU-145. In words: TF ELISA, DU-145. In kind it is cell-based. Conditions: 20 μM. The method, then: as §2
Test [8] deals with MDA-MB-435. The test can be described thus: Emory Laboratory Cell Screen, Neutral Red, MDA-MB-435. In kind it is cell-based, human. The note with it: MDA-MB-435, Breast Cancer, 72 hours, read-out: Median Growth Inhibitory Concentration (GI50). The protocol:
as §1

Test [9] has as its system Tissue Factor (TF) production by human melanoma cell line RPMI-7951. In words: TF ELISA, RPMI-7951. In kind it is cell-based. The protocol:
(§3) IMUBIND Tissue Factor ELISA Kit (American Diagnostica Inc, Greenwich, Conn.) was used to determine TF concentration in each sample. The ELISA was carried out according to manufacturer's procedure.

The subject of test [10] is Vascular Endothelial Growth Factor (VEGF) production by human prostate cancer cell line PC-3. The test can be described thus: VEGF ELISA, PC-3. In kind it is cell-based.
Test [11] deals with Tissue Factor (TF) production by human breast cancer cell line MDA-MB-231. In words: TF ELISA, MDA-MB-231. It counts as cell-based. Conditions: 0.5 μM. The method, then:
as §3

Test [12] has as its system HUVECS. In words: Emory Laboratory Cell Screen, Neutral Red, HUVECS. It counts as cell-based, human. The note with it: 72 hours, read-out: Median Growth Inhibitory Concentration (GI50). The protocol:
as §1

Test [13] relates to MDA-MB-231. The test can be described thus: Emory Laboratory Cell Screen, Neutral Red, MDA-MB-231. It counts as cell-based, human. The note with it: MDA-MB-231, Breast Cancer, 72 hours, read-out: Median Growth Inhibitory Concentration (GI50). The protocol:
as §1

Setting [14] is: Table 4, 20 μM, mean of triplicate and S.D.
Setting [15] is: RPMI-7951, 72 h, read-out: Neutral Red Uptake, %.
Setting [16] is: RPMI-7951, read-out: Cell Viability.
Where [17] appears, read: Homo sapiens, RPMI-7951, 72 h, read-out: VEGF.

As for `O=C(C=Cc1ccccc1O)C=Cc1ccccc1O` [EF2, 1,5-Bis(2-hydroxyphenyl)penta-1,4-dien-3-one], the GI50 in test [1] (Homo sapiens, Endothelial cell) came out at 1.8 µM; in [3] (Homo sapiens), 0.8 µM; in test [8] (Homo sapiens), 3.3 µM; in test [12] (Homo sapiens, HUVEC), 1.7 µM; in [13] (Homo sapiens), 1.5 µM. For the same compound, the “TF (% of DMSO)” value in test [2] (DMSO = 100%) was “(36%)”; in test [7] (DMSO = 100%), “(72%)”. Also, the TF in test [2] (mean of triplicate and S.D., DMSO 203 ± 6) stood at 73 ± 10 pg/mL; in test [7] (mean of triplicate and S.D., DMSO 7699 ± 406), 5540 ± 364 pg/mL; in test [9] (5 μM, DMSO = 100), 82%; in [9] (20 μM, DMSO = 100), 14%; in test [9] (Table 5, 5 μM, DMSO control 7054) it was 5780 pg/mL; in test [9] (Table 5, 20 μM, DMSO control 7054), 1009 pg/mL. For the same compound, the TF in test [11] (DMSO = 100) was 82%; in test [11] (DMSO control 45753), 37697 pg/mL. The “VEGF (% of DMSO)” value was “(40%)” in test [4] (20 μM, DMSO = 100%) and “(1%)” in test [10] (20 μM, DMSO = 100%). Further, the VEGF in test [4] (20 μM, mean of triplicate and S.D., DMSO 18760 ± 2633) came to 7516 ± 1915 pg/mL; in test [4] (Table 4, 20 μM, DMSO = 100), 40%; in [4] (setting [14]) it was 7516 ± 1915 pg/mL; in [6] (5 μM, DMSO control 4197 (EF-25: 1045)) it was 1522 pg/mL; in [6] (20 μM, DMSO control 4197), 0 pg/mL; in [10] (20 μM, mean of triplicate and S.D., DMSO 2103 ± 100), 26 ± 44 pg/mL. The VEGF in test [10] (Table 4, 20 μM, DMSO = 100) amounted to 1%; in test [10] (setting [14]), 26 ± 44 pg/mL. Further, the viability at 5 µM is 46% in [5] (setting [15]) and 68% in test [5] (setting [16]). Further, the viability at 20 µM in [5] (setting [15]) came to 7%; in test [5] (setting [16]), 42%. In addition, in test [6] (setting [17]), the activity at 5 µM worked out at 36%. Further, in test [6] (setting [17]), the activity at 20 µM is 0%. For the same compound, the “VEGF ELISA” value in test [6] (5 μM) was 1295 pg/ml/well; in [6] (20 μM) it was 84 pg/ml/well. In addition, in test [9] (5 μM, DMSO control 7054), the “TF ELISA” value stood at 1009 pg/ml/well.
With `CN1CC(=Cc2ccccc2O)C(=O)C(=Cc2ccccc2O)C1` [EF34, 3,5-Bis(2-hydroxybenzylidene)1-methyl4-piperidone], the GI50 was determined as 0.8 µM in test [1] (Homo sapiens, Endothelial cell) and 0.8 µM in test [13] (Homo sapiens).
Turning to `COc1cc(C=C2CSCC(=Cc3ccc(O)c(OC)c3)C2=O)ccc1O` [MD283], the GI50 in test [1] was 2.1 µM; in test [3] it was 1.4 µM; in [8], 1.9 µM; in test [12], 3.1 µM; in test [13] it was 1.8 µM.
